{"source": "patent US8552035B2", "about": "“Phenanthrenone compounds, compositions and methods” (Pfizer Inc., priority 2008, dated 2013)", "key": {"osteocalcin": {"tested_on": "osteocalcin", "assay": "28-day mouse side-effect model, serum osteocalcin suppression", "assay_type": "in vivo", "conditions": "oral gavage 28 days", "experimental": "10-12 week old female Swiss Webster mice (Taconic, Germantown, N.Y., U.S.A.) weighing 27-29 grams are used in accordance with the guidelines of the Institutional Animal Care and Use Committee and in accordance with NIH guidelines on laboratory animal welfare. Mice are acclimated to the Pfizer animal facility for 3-7 days prior to being placed on study. Prednisolone and DAGR compounds are administered by oral gavage for a total of 28 days. Each treatment group generally contains 8-10 mice. To establish a dosing regimen for the studies, a pilot pharmacodynamic time course experiment is conducted to quantify TNFa repression after a single ED80 dose (determined from the acute LPS endotoxemia mouse model). […] DAGR compounds vary in their required frequency of doses.\nBody weights are measured on the first and last day of each experiment. Blood samples are obtained after ˜3 weeks of dosing for steady-state pharmacokinetic analysis. To assess compound effects on LPS-induced TNF-a, all mice receive an intraperitoneal injection of LPS (Salmonella Typhosa, Sigma, St. Louis, L-7895) 2.5 hr after the last dose on day 28. Mice are sacrificed 90 min. after LPS administration. Serum samples are assayed for osteocalcin and TNFa using the Linco multiplex assay (St. Charles, Mo.) and Luminex 100 (Austin, Tex.). Samples are diluted 1:20 and the assay is run according to manufacturer's instructions. An osteocalcin standard is purchased separately from Biomedical Technologies Incorporated (Stoughton, Mass.). Serum insulin is measured to assess compound effects on insulin resistance. Insulin was measured using the UltraSensitive Mouse EIA kit from Alpco Diagnostics (Salem, N.H.) following the manufacturer's protocol.\nED50 and ED80 values are obtained for the various parameters using four-parameter logistic fits of data. For each experiment/dose group, outliers are detected by calculating the number of standard deviations each mouse's value was from the mean of their group and then dividing by the standard deviation of the group. The means and standard deviations used in this calculation omitted the value being examined so that, if it were an outlier, it would have no influence. If the value being examined is more than 2.5 standard deviations from the mean, it was not used in the rest of the calculations.\nPercent inhibition values are then calculated for each animal using the means of the vehicle and 10 mpk prednisone control groups. The individual mouse percent inhibition values are then fit to a four-parameter logistic model using the area under curve mean for each group. Since all four parameters are estimated and the lower plateau is not fixed at 0% and the upper plateau was not fixed at 100%, the ED50 and ED80 values are calculated by using an inverse calibration formula for a response equal to 50% or 80%. The designation “nd” means not determined."}, "IFNγ": {"tested_on": "IFNγ", "assay": "LPS-induced human whole blood, IFNγ release", "assay_type": "cell-based", "experimental": "(§1) Venous blood from human donors was collected as 10 ml aliquots in tubes containing sodium heparin (BD Vacutainer from Becton Dickinson and Company, Franklin Lakes, N.Y.). Blood was added to sterile polystyrene round bottom 96-well tissue culture plates (Corning Costar) at 180 Blood was placed in a humidified 37 C incubator with 5% CO2 while compounds were prepared (nearly 60 minutes).\n(§2) Compounds were prepared from 10 mM stock solutions in dimethylsulfoxide (DMSO, Sigma-Aldrich). Stock compound was diluted in DMSO to give appropriate starting concentration then diluted serially 1/3 in DMSO (i.e. 15 μl compound+30 μl DMSO), followed by diluting each serial dilution 1/167 into vehicle solution (2% DMSO in phosphate buffered saline (Dulbecco's Phosphate Buffered Saline without calcium chloride without magnesium chloride, Invitrogen Corporation, Carlsbad Calif.)). Compound or vehicle was added to blood in 10 μl aliquots as triplicates, omitting the outside wells to minimize possible edge effects. The final highest concentration of each compound in the assay ranged from 3 to 0.3 μM. Final DMSO concentration in the assay was 0.1%. The plate containing the samples was gently vortexed to mix and replaced in the incubator. LPS stock (E. coli serotype 0111:B4, Sigma-Aldrich), stored in aliquots of 100 μg/ml in RPMI at −20° C., was diluted […] in RPMI to make a working stock solution. After 60 minutes of incubation, 10 μl of the prepared LPS working stock was added to the blood to a final concentration of 100 ng/ml. Wells to be used as negative control received RPMI media with no LPS. The plate was again gently vortexed and the plates incubated overnight for 22 hours. Following incubation, the blood was centrifuged at 1500×g for 5 minutes and the plasma removed to either freeze at −20° C. or assay for cytokine release.\n(§3) IL-1β, IFNγ and TNFα protein levels were measured using Meso Scale assay kits (Meso Scale Discovery, Gaithersburg, Md., U.S.A.). Reagents were allowed to come to room temperature. Meso Scale plates were blocked with 150 μl of Meso Scale Block B diluent, gently shaking at room temperature for 60 minutes. Plates were washed 3× with wash buffer (PBS, Invitrogen Corporation, with 0.05% Tween-20, Sigma-Aldrich). Calibrators for standard curves were prepared in human plasma/serum assay diluent as a 1/5 serial dilution to achieve final concentrations ranging from 50000 pg/ml to 3.2 pg/ml. Samples were added at 10 to 20 μl/well and calibrators were added at 20 μl/well then incubated at room temperature with gentle shaking for 2 hours. Plates were again washed 3× with wash buffer. Detection antibody was diluted in human plasma/serum antibody diluent to 1 μg/ml and added to the plate at 20 μl/well. Plates were incubated as before for 2 hours and washed again. Read Buffer T (4×) was diluted 1:1 with mqH20 to 2× concentration and 150 μl added to each well. Plates were read on the SECTOR Imager 6000 (Meso Scale Discovery) to generate raw signal values.\n(§4) Individual sample signal values were compared to positive and negative controls (vehicle treated blood with LPS and vehicle treated blood without LPS, respectively) to generate % inhibition. Triplicate values were averaged for each donor. The values for three or four donors were averaged and graphed using 4-parameter fit curves in the LabStats plug-in for the Microsoft Excel application."}, "TNFα": {"tested_on": "TNFα", "assay": "LPS-induced human whole blood, TNFα release", "assay_type": "cell-based", "experimental": "as §1, §2, §3, §4"}, "[1]": {"conditions": "Homo sapiens, 0.137174 nM, mean of donors"}, "[2]": {"conditions": "Homo sapiens, 0.411523 nM, mean of donors"}, "[3]": {"conditions": "Homo sapiens, 1.234568 nM, mean of donors"}, "[4]": {"conditions": "Homo sapiens, 3.703704 nM, mean of donors"}, "[5]": {"conditions": "Homo sapiens, 11.11111 nM, mean of donors"}, "[6]": {"conditions": "Homo sapiens, 33.33333 nM, mean of donors"}, "[7]": {"conditions": "Homo sapiens, 100 nM, mean of donors"}, "[8]": {"conditions": "Homo sapiens, 300 nM, mean of donors"}, "[9]": {"conditions": "ex vivo LPS-stimulated human whole blood, extent of inhibition, concentration not given"}}}
{"smiles": "Cc1ncccc1NC(=O)c1ccc2c(c1)C(=O)C[C@@H]1C[C@@](O)(c3ccccc3)[C@](C)(O)C[C@@]21Cc1ccccc1", "note": "[Example 1, (4bR,6R,7R,8aS)-4b-benzyl-6,7-dihydroxy-6-methyl-N-(2-methylpyridin-3-yl)-10-oxo-7-phenyl-4b,5,6,7,8,8a,9,10-octahydrophenanthrene-2-carboxamide]", "values": [{"measurement": "ED50 at 28 days", "setting": "osteocalcin; female, Swiss Webster, read-out: Osteocalcin Suppression (ED50 dose)", "value": 0.081, "unit": "mg/kg"}, {"measurement": "Osteocalcin Suppression (ED80 dose)", "setting": "osteocalcin", "value": 0.35}, {"measurement": "inhibition at 0.000137174 µM", "setting": "IFNγ; [1]", "value": -3.93, "unit": "%"}, {"measurement": "inhibition at 0.000411523 µM", "setting": "IFNγ; [2]", "value": 15.6, "unit": "%"}, {"measurement": "inhibition at 0.00123457 µM", "setting": "IFNγ; [3]", "value": 18.4, "unit": "%"}, {"measurement": "inhibition at 0.0037037 µM", "setting": "IFNγ; [4]", "value": 26.9, "unit": "%"}, {"measurement": "inhibition at 0.0111111 µM", "setting": "IFNγ; [5]", "value": 51, "unit": "%"}, {"measurement": "inhibition at 0.0333333 µM", "setting": "IFNγ; [6]", "value": 66.2, "unit": "%"}, {"measurement": "inhibition at 0.1 µM", "setting": "IFNγ; [7]", "value": 72.5, "unit": "%"}, {"measurement": "inhibition at 0.3 µM", "setting": "IFNγ; [8]", "value": 72.9, "unit": "%"}, {"measurement": "level of inhibition of IFN", "setting": "IFNγ; [9]", "value": 73, "unit": "%"}, {"measurement": "inhibition at 0.000137174 µM", "setting": "TNFα; [1]", "value": 0.604, "unit": "%"}, {"measurement": "inhibition at 0.000411523 µM", "setting": "TNFα; [2]", "value": -3.62, "unit": "%"}, {"measurement": "inhibition at 0.00123457 µM", "setting": "TNFα; [3]", "value": 0.811, "unit": "%"}, {"measurement": "inhibition at 0.0037037 µM", "setting": "TNFα; [4]", "value": 7.09, "unit": "%"}, {"measurement": "inhibition at 0.0111111 µM", "setting": "TNFα; [5]", "value": 18.1, "unit": "%"}, {"measurement": "inhibition at 0.0333333 µM", "setting": "TNFα; [6]", "value": 30.7, "unit": "%"}, {"measurement": "inhibition at 0.1 µM", "setting": "TNFα; [7]", "value": 42.2, "unit": "%"}, {"measurement": "inhibition at 0.3 µM", "setting": "TNFα; [8]", "value": 42.8, "unit": "%"}, {"measurement": "level of inhibition of TNF", "setting": "TNFα; [9]", "value": 43, "unit": "%"}]}
